Reference: PubChem BioAssay AID2060496 (Molecular Pharmacology Branch, DTP, NCI, 2025)
pIC50: −log10 of the molar value.

Test system: 276233-004-R-J1-PDC complex spheroid viability
Assay: Anticancer human tumor 276233-004-R-J1-PDC patient-derived colon adenocarcinoma cell line growth inhibition [GQUAD]
Conditions: for pIC50: curve of first compound; for viability, T/C: stronger effect = lower value
Procedure, shortened: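 Viability of tumor cells grown as complex spheroids with endothelial and stromal cells, exposed to drug combinations. Top concentration at or near clinical Cmax (else 10 microM), diluted in half-log increments.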

[1] = second compound 0.0316 µM, first compound 0.0316 µM
[2] = second compound 0.0316 µM, first compound 0.1 µM
[3] = second compound 0.0316 µM, first compound 0.316 µM
[4] = second compound 0.0316 µM, first compound 1 µM
[5] = second compound 0.0316 µM, first compound 3.16 µM
[6] = second compound 0.0316 µM, first compound 10 µM
[7] = second compound 0.1 µM, first compound 0.0316 µM
[8] = second compound 0.1 µM, first compound 0.1 µM
[9] = second compound 0.1 µM, first compound 0.316 µM
[10] = second compound 0.1 µM, first compound 1 µM
[11] = second compound 0.1 µM, first compound 3.16 µM
[12] = second compound 0.1 µM, first compound 10 µM
[13] = second compound 0.316 µM, first compound 0.0316 µM
[14] = second compound 0.316 µM, first compound 0.1 µM
[15] = second compound 0.316 µM, first compound 0.316 µM
[16] = second compound 0.316 µM, first compound 1 µM
[17] = second compound 0.316 µM, first compound 3.16 µM
[18] = second compound 0.316 µM, first compound 10 µM
[19] = second compound 1 µM, first compound 0.0316 µM
[20] = second compound 1 µM, first compound 0.1 µM
[21] = second compound 1 µM, first compound 0.316 µM
[22] = second compound 1 µM, first compound 1 µM
[23] = second compound 1 µM, first compound 3.16 µM
[24] = second compound 1 µM, first compound 10 µM
[25] = second compound 3.16 µM, first compound 0.0316 µM
[26] = second compound 3.16 µM, first compound 0.1 µM
[27] = second compound 3.16 µM, first compound 0.316 µM
[28] = second compound 3.16 µM, first compound 1 µM
[29] = second compound 3.16 µM, first compound 3.16 µM
[30] = second compound 3.16 µM, first compound 10 µM
[31] = second compound 10 µM, first compound 0.0316 µM
[32] = second compound 10 µM, first compound 0.1 µM
[33] = second compound 10 µM, first compound 0.316 µM
[34] = second compound 10 µM, first compound 1 µM
[35] = second compound 10 µM, first compound 3.16 µM
[36] = second compound 10 µM, first compound 10 µM
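Note: spheroids exposed to drugs for seven days.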
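Throughout, for viability, T/C: 100% = DMSO vehicle control viability.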

CC(C)n1c(=O)n(C)c2cnc3cc(F)c(-c4ccc(OCCCN5CCCCC5)nc4)cc3c21 + Cc1[nH]c2ccc(F)cc2c1-c1nc2c3cccnc3c3ncccc3c2[nH]1
pIC50 (second compound 0.0316 µM): < 5.00
pIC50 (second compound 0.1 µM): < 5.00
pIC50 (second compound 0.316 µM): < 5.00
pIC50 (second compound 1 µM): < 5.00
pIC50 (second compound 3.16 µM): 5.49
pIC50 (second compound 10 µM): > 7.50
viability, T/C [1]: 98.8%
viability, T/C [2]: 86.7%
viability, T/C [3]: 110%
viability, T/C [4]: 80.8%
viability, T/C [5]: 103%
viability, T/C [6]: 82.9%
viability, T/C [7]: 90.9%
viability, T/C [8]: 88.7%
viability, T/C [9]: 85%
viability, T/C [10]: 100%
viability, T/C [11]: 78.2%
viability, T/C [12]: 84.8%
viability, T/C [13]: 88.1%
viability, T/C [14]: 94.3%
viability, T/C [15]: 79%
viability, T/C [16]: 94.2%
viability, T/C [17]: 104%
viability, T/C [18]: 87.8%
viability, T/C [19]: 72.8%
viability, T/C [20]: 73.3%
viability, T/C [21]: 82.2%
viability, T/C [22]: 70.1%
viability, T/C [23]: 80.8%
viability, T/C [24]: 69.7%
viability, T/C [25]: 52%
viability, T/C [26]: 49.2%
viability, T/C [27]: 55%
viability, T/C [28]: 45.8%
viability, T/C [29]: 50.9%
viability, T/C [30]: 26.8%
viability, T/C [31]: 48.7%
viability, T/C [32]: 47%
viability, T/C [33]: 54.9%
viability, T/C [34]: 42%
viability, T/C [35]: 47%
viability, T/C [36]: 21.7%

CCc1c2c(nc3ccc(O)cc13)-c1cc3c(c(=O)n1C2)COC(=O)[C@]3(O)CC + Cc1[nH]c2ccc(F)cc2c1-c1nc2c3cccnc3c3ncccc3c2[nH]1
pIC50 (second compound 0.0316 µM): < 6.50
pIC50 (second compound 0.1 µM): < 6.50
pIC50 (second compound 0.316 µM): < 6.50
pIC50 (second compound 1 µM): < 6.50
pIC50 (second compound 3.16 µM): < 6.50
pIC50 (second compound 10 µM): > 9.00
viability, T/C (second compound 0.0316 µM, first compound 0.000999 µM): 104%
viability, T/C (second compound 0.0316 µM, first compound 0.00316 µM): 72.7%
viability, T/C (second compound 0.0316 µM, first compound 0.00999 µM): 85.2%
viability, T/C [1]: 103%
viability, T/C (second compound 0.0316 µM, first compound 0.0999 µM): 106%
viability, T/C [3]: 94.2%
viability, T/C (second compound 0.1 µM, first compound 0.000999 µM): 76.3%
viability, T/C (second compound 0.1 µM, first compound 0.00316 µM): 89.8%
viability, T/C (second compound 0.1 µM, first compound 0.00999 µM): 79.5%
viability, T/C [7]: 97.5%
viability, T/C (second compound 0.1 µM, first compound 0.0999 µM): 111%
viability, T/C [9]: 90.4%
viability, T/C (second compound 0.316 µM, first compound 0.000999 µM): 78.8%
viability, T/C (second compound 0.316 µM, first compound 0.00316 µM): 82.6%
viability, T/C (second compound 0.316 µM, first compound 0.00999 µM): 78.1%
viability, T/C [13]: 94.1%
viability, T/C (second compound 0.316 µM, first compound 0.0999 µM): 97.2%
viability, T/C [15]: 88.1%
viability, T/C (second compound 1 µM, first compound 0.000999 µM): 62.8%
viability, T/C (second compound 1 µM, first compound 0.00316 µM): 82.7%
viability, T/C (second compound 1 µM, first compound 0.00999 µM): 80.5%
viability, T/C [19]: 81.6%
viability, T/C (second compound 1 µM, first compound 0.0999 µM): 90.1%
viability, T/C [21]: 73.5%
viability, T/C (second compound 3.16 µM, first compound 0.000999 µM): 58.7%
viability, T/C (second compound 3.16 µM, first compound 0.00316 µM): 57.3%
viability, T/C (second compound 3.16 µM, first compound 0.00999 µM): 54%
viability, T/C [25]: 62.3%
viability, T/C (second compound 3.16 µM, first compound 0.0999 µM): 67.3%
viability, T/C [27]: 67.3%
viability, T/C (second compound 10 µM, first compound 0.000999 µM): 39.8%
viability, T/C (second compound 10 µM, first compound 0.00316 µM): 41.1%
viability, T/C (second compound 10 µM, first compound 0.00999 µM): 56.8%
viability, T/C [31]: 62.2%
viability, T/C (second compound 10 µM, first compound 0.0999 µM): 55.4%
viability, T/C [33]: 54.8%

O=C(c1cc(Cc2n[nH]c(=O)c3ccccc23)ccc1F)N1CCN(C(=O)C2CC2)CC1 + Cc1[nH]c2ccc(F)cc2c1-c1nc2c3cccnc3c3ncccc3c2[nH]1
pIC50 (second compound 0.0316 µM): < 5.00
pIC50 (second compound 0.1 µM): < 5.00
pIC50 (second compound 0.316 µM): < 5.00
pIC50 (second compound 1 µM): < 5.00
pIC50 (second compound 3.16 µM): < 5.00
pIC50 (second compound 10 µM): > 7.50
viability, T/C [1]: 108%
viability, T/C [2]: 95.4%
viability, T/C [3]: 92.5%
viability, T/C [4]: 73.3%
viability, T/C [5]: 95.1%
viability, T/C [6]: 83.4%
viability, T/C [7]: 83.6%
viability, T/C [8]: 90.4%
viability, T/C [9]: 92%
viability, T/C [10]: 90.4%
viability, T/C [11]: 91.6%
viability, T/C [12]: 101%
viability, T/C [13]: 75.4%
viability, T/C [14]: 86.2%
viability, T/C [15]: 85%
viability, T/C [16]: 91.1%
viability, T/C [17]: 85.9%
viability, T/C [18]: 81.4%
viability, T/C [19]: 69%
viability, T/C [20]: 79.5%
viability, T/C [21]: 77.4%
viability, T/C [22]: 69.7%
viability, T/C [23]: 64.4%
viability, T/C [24]: 83.2%
viability, T/C [25]: 51.5%
viability, T/C [26]: 64.2%
viability, T/C [27]: 55.7%
viability, T/C [28]: 55%
viability, T/C [29]: 56.3%
viability, T/C [30]: 59.6%
viability, T/C [31]: 48.8%
viability, T/C [32]: 50.9%
viability, T/C [33]: 44.7%
viability, T/C [34]: 50.3%
viability, T/C [35]: 55%
viability, T/C [36]: 51%

C#Cc1c(F)ccc2cc(O)cc(-c3ncc4c(N5CC6CCC(C5)N6)nc(OCC56CCCN5CC(F)C6)nc4c3F)c12 (stereo not drawn) + CN(C)c1ccc(Nc2c3ccc(NC(=O)CCN4CCCC4)cc3nc3cc(NC(=O)CCN4CCCC4)ccc23)cc1
pIC50 (second compound 0.0316 µM): 5.48
pIC50 (second compound 0.1 µM): 5.50
pIC50 (second compound 0.316 µM): 5.89
pIC50 (second compound 1 µM): 6.43
pIC50 (second compound 3.16 µM): > 7.50
pIC50 (second compound 10 µM): > 7.50
viability, T/C [1]: 90.1%
viability, T/C [2]: 79%
viability, T/C [3]: 101%
viability, T/C [4]: 75.6%
viability, T/C [5]: 52%
viability, T/C [6]: 36.9%
viability, T/C [7]: 78.7%
viability, T/C [8]: 74.2%
viability, T/C [9]: 56.4%
viability, T/C [10]: 56.8%
viability, T/C [11]: 54.8%
viability, T/C [12]: 42.2%
viability, T/C [13]: 54.7%
viability, T/C [14]: 47.2%
viability, T/C [15]: 57.1%
viability, T/C [16]: 54.2%
viability, T/C [17]: 39%
viability, T/C [18]: 30.1%
viability, T/C [19]: 65%
viability, T/C [20]: 54.8%
viability, T/C [21]: 54.9%
viability, T/C [22]: 40.4%
viability, T/C [23]: 49.1%
viability, T/C [24]: 42%
viability, T/C [25]: 51.2%
viability, T/C [26]: 40%
viability, T/C [27]: 36.5%
viability, T/C [28]: 39.2%
viability, T/C [29]: 39.1%
viability, T/C [30]: 35.1%
viability, T/C [31]: 43.6%
viability, T/C [32]: 43.7%
viability, T/C [33]: 40.2%
viability, T/C [34]: 40.7%
viability, T/C [35]: 36.6%
viability, T/C [36]: 27.4%
